Experimental data taken from ChEMBL document CHEMBL1152735, “Synthesis and antiprotozoal activity of novel 1-methylbenzimidazole derivatives” (Bioorg Med Chem, 2009).

Assays:
Giardia intestinalis = experiment: Antiprotozoal activity against Giardia intestinalis IMSS:0981:1 trophozoites after 48 hrs; format: functional, organism-based; details: Giardia duodenalis
Trichomonas vaginalis = experiment: Antiprotozoal activity against Trichomonas vaginalis GT3 trophozoites after 48 hrs; format: functional, organism-based; details: GT3, 48 h

| SMILES | IC50 (Giardia intestinalis) [nM] | IC50 (Trichomonas vaginalis) [nM] |
| --- | --- | --- |
| CC(=O)c1nc2ccc(Cl)cc2n1C | 67 | 228 |
| CC(=O)c1nc2ccccc2n1C | 86.1 | 210 |
| Cn1c(C(N)=O)nc2ccccc21 | 94.2 | 166 |
| Cn1c(C(N)=O)nc2ccc(Cl)cc21 | 76.3 | 109 |
| CC(O)c1nc2ccccc2n1C (stereo not given) | 68.1 | 167 |
| Cn1c(C(N)=O)nc2cc(Cl)c(Cl)cc21 | 462 | 134 |
| CNC(=O)c1nc2cc(Cl)ccc2n1C | 358 | 358 |
| CN(C)C(=O)c1nc2cc(Cl)ccc2n1C | 244 | 210 |
| Cn1c(C(N)=O)nc2cc(Cl)ccc21 | 234 | 186 |
| CN(C)C(=O)c1nc2ccc(Cl)cc2n1C | 40 | 238 |
| CNC(=O)c1nc2cc(Cl)c(Cl)cc2n1C | 151 | 225 |
| CC(=O)c1nc2cc(Cl)ccc2n1C | 50.3 | 132 |
| CN(C)C(=O)c1nc2ccccc2n1C | 512 | 430 |
| CCCSc1ccc2[nH]c(NC(=O)OC)nc2c1 [ALBENDAZOLE] | – | 1590 |
| Cc1ncc([N+](=O)[O-])n1CCO [METRONIDAZOLE] | – | 236 |

The remaining compounds from weak to strong by IC50 (Trichomonas vaginalis), led by results:

| IC50 (Giardia intestinalis) [nM] | IC50 (Trichomonas vaginalis) [nM] | SMILES |
| --- | --- | --- |
| 71.2 | 109 | CC(O)c1nc2ccc(Cl)cc2n1C (stereo not given) |
| 60.8 | 108 | CNC(=O)c1nc2ccccc2n1C |
| 71.5 | 105 | CNC(=O)c1nc2ccc(Cl)cc2n1C |
| 37.9 | 94.9 | CC(O)c1nc2cc(Cl)ccc2n1C (stereo not given) |
| 68.6 | 85.7 | CCOC(=O)c1nc2ccccc2n1C |
| 73.5 | 75.3 | CN(C)C(=O)c1nc2cc(Cl)c(Cl)cc2n1C |
| 34.9 | 63.7 | CC(=O)c1nc2cc(Cl)c(Cl)cc2n1C |
| 20.3 | 40.7 | CC(O)c1nc2cc(Cl)c(Cl)cc2n1C (stereo not given) |
| 27.5 | 29.3 | CCOC(=O)c1nc2cc(Cl)c(Cl)cc2n1C |
| 39.8 | 27.2 | CCOC(=O)c1nc2cc(Cl)ccc2n1C |
| 48.2 | 18.9 | CCOC(=O)c1nc2ccc(Cl)cc2n1C |
